Experimental data published in PubChem BioAssay (NCI).
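96-well plates; 48 h exposure; 5 concentrations. Endpoints by linear interpolation between flanking doses. Not reached: highest tested concentration assigned. Definition used: TGI = concentration required for complete inhibition of growth.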

How the values were obtained:
Experiment in all cases: inhibition of tumour cell growth, NCI panel, 48 h
KM12 colon = test system: KM12 colon
ACHN renal = test system: ACHN renal
SK-MEL-5 melanoma = test system: SK-MEL-5 melanoma
OVCAR-5 ovarian = test system: OVCAR-5 ovarian
SK-MEL-28 melanoma = test system: SK-MEL-28 melanoma
HCC-2998 colon = test system: HCC-2998 colon
COLO 205 colon = test system: COLO 205 colon
SF-295 CNS = test system: SF-295 CNS
SF-539 CNS = test system: SF-539 CNS
UO-31 renal = test system: UO-31 renal
SK-MEL-2 melanoma = test system: SK-MEL-2 melanoma
NCI-H522 lung = test system: NCI-H522 lung
RXF 393 renal = test system: RXF 393 renal
CAKI-1 renal = test system: CAKI-1 renal
RPMI-8226 leukemia = test system: RPMI-8226 leukemia
SNB-19 CNS = test system: SNB-19 CNS
MDA-MB-231 breast = test system: MDA-MB-231 breast
PC-3 prostate = test system: PC-3 prostate
DU-145 prostate = test system: DU-145 prostate

Row | Structure (SMILES) | TGI (KM12 colon) [µM] | TGI (ACHN renal) [µM] | TGI (SK-MEL-5 melanoma) [µM] | TGI (OVCAR-5 ovarian) [µM] | TGI (SK-MEL-28 melanoma) [µM] | TGI (HCC-2998 colon) [µM] | TGI (COLO 205 colon) [µM] | TGI (SF-295 CNS) [µM] | TGI (SF-539 CNS) [µM] | TGI (UO-31 renal) [µM] | TGI (SK-MEL-2 melanoma) [µM] | TGI (NCI-H522 lung) [µM] | TGI (RXF 393 renal) [µM] | TGI (CAKI-1 renal) [µM] | TGI (RPMI-8226 leukemia) [µM] | TGI (SNB-19 CNS) [µM] | TGI (MDA-MB-231 breast) [µM] | TGI (PC-3 prostate) [µM] | TGI (DU-145 prostate) [µM]
1 | CC(C)(C)OC(=O)N1CC(C)(C)N2C(=O)C3(CCCO3)C12 (stereo unspecified) | > 100 | > 100 | > 100 | > 100 | > 100 | > 100 | > 100 | > 100 | > 100 | > 100 | > 100 | > 100 | > 100 | > 100 | 53.1 | > 100 | – | – | –
2 | CC(ON1[C@](C)(c2ccccc2)CC[C@@]1(C)c1ccccc1)c1ccccc1 (stereo partly specified) | > 100 | – | > 100 | > 100 | > 100 | 52.6 | > 100 | > 100 | > 100 | > 100 | 50.5 | 50.3 | 46 | > 100 | 58.2 | 93 | > 100 | > 100 | > 100
3 | Cc1nc(C)c(N2CCN(S(N)(=O)=O)CC2)c(=O)[nH]1 | > 100 | > 100 | > 100 | – | > 100 | > 100 | > 100 | > 100 | > 100 | > 100 | – | > 100 | > 100 | > 100 | > 100 | > 100 | > 100 | > 100 | > 100
